# Laboratory results reported in patent US9499502B2, “5-substituted iminothiazines and their mono- and dioxides as BACE inhibitors, compositions, and their use” (Merck Sharp & Dohme Corp., priority 2011, dated 2016).
# Target: soluble human BACE1 catalytic domain (Homo sapiens (Human), UniProt P56817)
# Assay: BACE1 HTRF FRET Assay
# Settings: read-out: BACE1 % Inh. at 10 μM, at 10 μM
# Sequence of soluble human BACE1 catalytic domain (P56817 75-416): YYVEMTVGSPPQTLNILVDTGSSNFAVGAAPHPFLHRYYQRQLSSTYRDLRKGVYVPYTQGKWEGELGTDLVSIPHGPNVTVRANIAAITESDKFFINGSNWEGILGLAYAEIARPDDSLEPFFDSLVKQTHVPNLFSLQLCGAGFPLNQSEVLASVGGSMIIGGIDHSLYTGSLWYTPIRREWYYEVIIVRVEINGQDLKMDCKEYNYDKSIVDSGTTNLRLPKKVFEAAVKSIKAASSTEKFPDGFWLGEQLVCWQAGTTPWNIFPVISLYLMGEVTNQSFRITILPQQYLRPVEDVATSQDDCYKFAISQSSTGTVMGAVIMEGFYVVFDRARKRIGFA
row,SMILES,inhibition at 10 µM [%]
1,CC1(C)C(=N)N[C@](C)(c2nc(-c3cncc(C#N)c3)ccc2F)CS1(=O)=O [Example 16d],29
2,COc1cccc2cc(-c3ccc(F)c([C@]4(C)CS(=O)(=O)C(C)(C)C(=N)N4)n3)[nH]c12 [Example 16e],31

# Same assay, conditions: read-out: BACE1 Ki
row,SMILES,Ki [nM]
1,CC1(C)C(=N)N[C@](C)(c2cc(-c3cccc(-c4nnco4)c3)cs2)CS1(=O)=O [Example 27ah],41.5
2,CC1(C)C(=N)N[C@](C)(c2cc(-c3cccc(-c4cnco4)c3)cs2)CS1(=O)=O [Example 27ai],74
3,CC1(C)C(=N)N[C@](C)(c2cc(-c3cccc(-c4ccno4)c3)cs2)CS1(=O)=O [Example 27aj],113
4,CC1(C)C(=N)N[C@](C)(c2cc(-c3cncc(-c4ncco4)c3)cs2)CS1(=O)=O [Example 27ak],128
5,CC1(C)C(=N)N[C@](C)(c2cc(-c3cncc(-c4cnco4)c3)cs2)CS1(=O)=O [Example 27al],93.8
6,CC1(C)C(=N)N[C@](C)(c2cc(-c3cc(F)cc(-c4cnco4)c3)cs2)CS1(=O)=O [Example 27am],80.6
7,CC1(C)C(=N)N[C@](C)(c2sc(-c3cncc(C#N)c3)cc2F)CS1(=O)=O [Example 27ap],102
8,CC1(C)C(=N)N[C@](C)(c2sc(-c3cccc(-c4nnco4)c3)cc2F)CS1(=O)=O [Example 27ar],11
9,COc1cncc(-c2cc(F)c([C@]3(C)CS(=O)(=O)C(C)(C)C(=N)N3)s2)n1 [Example 27au],943
10,CC1(C)C(=N)N[C@](C)(c2sc(-c3ccnc(C4CC4)c3)cc2F)CS1(=O)=O [Example 27av],663
11,Cc1noc(-c2cccc(-c3cc(F)c([C@]4(C)CS(=O)(=O)C(C)(C)C(=N)N4)s3)c2)n1 [Example 27aw],125
12,Cc1nnc(-c2ccc(F)c(-c3cc(F)c([C@]4(C)CS(=O)(=O)C(C)(C)C(=N)N4)s3)c2)o1 [Example 27ax],858
13,Cc1nnc(-c2cccc(-c3cc(F)c([C@]4(C)CS(=O)(=O)C(C)(C)C(=N)N4)s3)c2)o1 [Example 27ay],480
14,CC1(C)C(=N)N[C@](C)(c2sc(-c3cncc(-c4nnco4)c3)cc2F)CS1(=O)=O [Example 27az],14
15,CC1(C)C(=N)N[C@](C)(c2sc(-c3nnc(-c4ccc(C#N)cc4)o3)cc2F)CS1(=O)=O [Example 27bi],48.9
16,C[C@@]1(c2sc(-c3cccc(C#N)c3)cc2F)CS(=O)(=O)[C@](C)(CC(F)(F)F)C(=N)N1 [Example 27bj-b],829
17,C[C@@]1(c2sc(-c3cccc(-c4nnco4)c3)cc2F)CS(=O)(=O)[C@](C)(CC(F)(F)F)C(=N)N1 [Example 27bk-b],106
18,COc1cccc(-c2cc(F)c([C@]3(C)CS(=O)(=O)[C@](C)(CC(F)(F)F)C(=N)N3)s2)c1 [Example 27bl-b],7310
19,COc1cncc(-c2cc(F)c([C@]3(C)CS(=O)(=O)C(C)(CC(F)(F)F)C(=N)N3)s2)c1 (stereo partly drawn) [Example 27bn-a],8020
20,C[C@@]1(c2sc(-c3cccc(C#N)c3)cc2F)CS(=O)(=O)[C@@](C)(c2ccccn2)C(=N)N1 [Example 27bo-a],132
21,C[C@@]1(c2ccccn2)C(=N)N[C@](C)(c2sc(-c3cccc(C#N)c3)cc2F)CS1(=O)=O [Example 27bo-b],2720
22,C[C@@]1(c2sc(-c3cccc(-c4nnco4)c3)cc2F)CS(=O)(=O)[C@@](C)(c2ccccn2)C(=N)N1 [Example 27bp-a],17.8
23,C[C@@]1(c2ccccn2)C(=N)N[C@](C)(c2sc(-c3cccc(-c4nnco4)c3)cc2F)CS1(=O)=O [Example 27bp-b],396
24,C[C@@]1(c2sc(-c3cncc(C#N)c3)cc2F)CS(=O)(=O)[C@@](C)(c2ccccn2)C(=N)N1 [Example 27bq-a],268
25,C[C@@]1(c2ccccn2)C(=N)N[C@](C)(c2sc(-c3cncc(C#N)c3)cc2F)CS1(=O)=O [Example 27bq-b],2500
26,C[C@@]1(c2cccc(F)c2)C(=N)N[C@](C)(c2sc(-c3cccc(C#N)c3)cc2F)CS1(=O)=O [Example 27br-b],4930
27,C[C@@]1(c2ccccc2F)C(=N)N[C@](C)(c2sc(-c3cccc(C#N)c3)cc2F)CS1(=O)=O [Example 27bs-b],3170
28,COCC1(COC)C(=N)N[C@](C)(c2sc(-c3cccc(C#N)c3)cc2Cl)CS1(=O)=O [Example 27bt],135
29,COCC1(COC)C(=N)N[C@](C)(c2sc(-c3cccc(-c4nnco4)c3)cc2Cl)CS1(=O)=O [Example 27bu],1170

# Same assay, conditions: read-out: BACE1 Ki; Ki calculated from IC50 using the Cheng-Prusoff equation
row,SMILES,Ki [nM]
1,CC1(C)C(=N)N[C@](C)(c2cc(NC(=O)c3ccc(Cl)cn3)cc(F)c2F)CS1(=O)=O [Example 9l],4.3
2,COc1ccc(C(=O)Nc2cc(F)c(F)c([C@]3(C)CS(=O)(=O)C(C)(C)C(=N)N3)c2)nc1 [Example 9m],7.6
3,COc1cnc(C(=O)Nc2cc(F)c(F)c([C@]3(C)CS(=O)(=O)C(C)(C)C(=N)N3)c2)c(F)c1 [Example 9o],3
4,CC1(C)C(=N)N[C@](C)(c2cc(NC(=O)c3cnc(C(F)F)cn3)ccc2F)CS1(=O)=O [Example 9q],3.6
5,CC1(C)C(=N)N[C@](C)(c2cc(NC(=O)c3cnc(C(F)F)cn3)cc(F)c2F)CS1(=O)=O [Example 9r],5.3
6,CC1(C)C(=N)N[C@](C)(c2cc(NC(=O)c3ccc(F)cn3)cc(Cl)c2F)CS1(=O)=O [Example 9s],6.3
7,CC1(C)C(=N)N[C@](C)(c2cc(NC(=O)c3ccc(Cl)cn3)cc(Cl)c2F)CS1(=O)=O [Example 9t],3.3
8,COc1ccc(C(=O)Nc2cc(Cl)c(F)c([C@]3(C)CS(=O)(=O)C(C)(C)C(=N)N3)c2)nc1 [Example 9u],5.8
9,COc1cnc(C(=O)Nc2cc(Cl)c(F)c([C@]3(C)CS(=O)(=O)C(C)(C)C(=N)N3)c2)cn1 [Example 9w],4.4
10,CC1(C)C(=N)N[C@](C)(c2nc(-c3cccc(C#N)c3)ccc2F)CS1(=O)=O [Example 16b],4960
11,CC1(C)C(=N)N[C@](C)(c2nc(-c3ccc(C#N)s3)ccc2F)CS1(=O)=O [Example 16c],3590
12,CCc1cccc(NC(=O)c2cc(Cl)c([C@]3(C)CS(=O)(=O)C(C)(C)C(=N)N3)s2)n1 [Example 19],134
13,CC1(C)C(=N)N[C@](C)(c2sc(C(=O)Nc3cccc(F)n3)cc2Cl)CS1(=O)=O [Example 21],265
14,CC1(C)C(=N)N[C@](C)(c2sc(C(=O)Nc3cccc(C(F)(F)F)n3)cc2Cl)CS1(=O)=O [Example 22],175
15,CC1(C)C(=N)N[C@](C)(c2sc(C(=O)NCc3ncccc3Cl)cc2Cl)CS1(=O)=O [Example 22a],1400
16,CC1(C)C(=N)N[C@](C)(c2sc(C(=O)NCc3ncccn3)cc2Cl)CS1(=O)=O [Example 22b],3520
17,Cc1cccc(CNC(=O)c2cc(Cl)c([C@]3(C)CS(=O)(=O)C(C)(C)C(=N)N3)s2)n1 [Example 22c],7880
18,CC1(C)C(=N)N[C@](C)(c2sc(C(=O)NCc3ccc4cnccc4c3)cc2Cl)CS1(=O)=O [Example 22d],4630
19,Cc1ccc(CNC(=O)c2cc(Cl)c([C@]3(C)CS(=O)(=O)C(C)(C)C(=N)N3)s2)nn1 [Example 22e],759
20,CC1(C)C(=N)N[C@](C)(c2sc(C(=O)NCc3ccccc3Cl)cc2Cl)CS1(=O)=O [Example 22h],1620
21,CC1(C)C(=N)N[C@](C)(c2sc(C(=O)NCc3cccc(F)c3)cc2Cl)CS1(=O)=O [Example 22i],1160

row,SMILES,Ki [nM]
1,CC1(C)C(=N)N[C@](C)(c2sc(C(=O)NCc3ccc(F)cc3)cc2Cl)CS1(=O)=O [Example 22j],753
2,CC1(C)C(=N)N[C@](C)(c2sc(C(=O)NCc3ccc(Cl)cc3)cc2Cl)CS1(=O)=O [Example 22k],863
3,CC1(C)C(=N)N[C@](C)(c2sc(C(=O)NCc3cccc(Cl)c3)cc2Cl)CS1(=O)=O [Example 22l],1270
4,CC1(C)C(=N)N[C@](C)(c2sc(C(=O)NCc3ccc(C#N)cc3)cc2Cl)CS1(=O)=O [Example 22m],1030
5,CC1(C)C(=N)N[C@](C)(c2sc(C(=O)NCC3CCC3)cc2Cl)CS1(=O)=O [Example 22n],917
6,CC1(C)C(=N)N[C@](C)(c2sc(C(=O)NCc3ncc(F)cc3Cl)cc2Cl)CS1(=O)=O [Example 22o],1180
7,CC1(C)C(=N)N[C@](C)(c2sc(C(=O)NCc3ccc(C(F)(F)F)cn3)cc2Cl)CS1(=O)=O [Example 22p],1800
8,CC1(C)C(=N)N[C@](C)(c2sc(C(=O)NCc3cnoc3)cc2Cl)CS1(=O)=O [Example 22q],359
9,CC1(C)C(=N)N[C@](C)(c2sc(C(=O)NCc3cnsn3)cc2Cl)CS1(=O)=O [Example 22r],186
10,CC1(C)C(=N)N[C@](C)(c2sc(C(=O)NCc3cnn4ccccc34)cc2Cl)CS1(=O)=O [Example 22s],128
11,CC1(C)C(=N)N[C@](C)(c2sc(C(=O)NCc3ccncn3)cc2Cl)CS1(=O)=O [Example 22t],3130
12,CC1(C)C(=N)N[C@](C)(c2sc(C(=O)NCc3ccsn3)cc2Cl)CS1(=O)=O [Example 22v],292
13,CC1(C)C(=N)N[C@](C)(c2sc(-c3cc(F)cc(-c4cnco4)c3)cc2Cl)CS1(=O)=O [Example 27aa],26.1
14,CC1(C)C(=N)N[C@](C)(c2sc(-c3cc(F)cc(-c4nnco4)c3)cc2Cl)CS1(=O)=O [Example 27ab],15.4
15,CC1(C)C(=N)N[C@](C)(c2sc(-c3cncc(-c4cnco4)c3)cc2Cl)CS1(=O)=O [Example 27ac],22.3
16,CC1(C)C(=N)N[C@](C)(c2sc(-c3cncc(-c4ncco4)c3)cc2Cl)CS1(=O)=O [Example 27ad],44.4
17,CC1(C)C(=N)N[C@](C)(c2sc(-c3cccc(-c4nnco4)c3)cc2Cl)CS1(=O)=O [Example 27b],8.2
18,CC1(C)C(=N)N[C@](C)(c2sc(-c3nnc(-c4ccccc4)o3)cc2Cl)CS1(=O)=O [Example 27ba],258
19,COc1ccc(-c2nnc(-c3cc(Cl)c([C@]4(C)CS(=O)(=O)C(C)(C)C(=N)N4)s3)o2)cc1 [Example 27bd],76.1
20,CC1(C)C(=N)N[C@](C)(c2sc(-c3nnc(-c4ccc(C#N)cc4)o3)cc2Cl)CS1(=O)=O [Example 27be],49.2
